Where “and” joins values, the source holds several entries; their conditions need not be identical. Equal entries are not always repeated.
Columns and labels:
Assay in all cases: Time to Kill
Format in all cases: cell-based
Candida albicans = details: 128 ppm; for Exposure time to complete kill: C. albicans, challenge 10^4-10^5 CFU/mL; for Number of Microbial Colonies: Candida albicans, replicates 1-5
Method: (§1) Alexidine and Chlorhexidine, both at a concentration of 128 ppm were exposed to a Gram positive bacteria (Staphylococcus aureus), a Gram negative bacteria (Pseudomonas aeruginosa), and a fungus (Candida albicans). The challenge concentration for each organism was 10^4-10^5 CFU/mL, and the exposure time varied from 0.5-60 minutes. […] Complete kill of all three organisms was observed within 0.5-1 minute of Alexidine exposure.

Pseudomonas aeruginosa = details: 128 ppm; for Exposure time to complete kill: P. aeruginosa, challenge 10^4-10^5 CFU/mL; for Number of Microbial Colonies: Pseudomonas aeruginosa, replicates 1-5
Method: as §1

Staphylococcus aureus = details: 128 ppm; for Exposure time to complete kill: S. aureus, challenge 10^4-10^5 CFU/mL; for Number of Microbial Colonies: Staphylococcus aureus, replicates 1-5
Method: as §1

[1] = exposure 0.5 minutes, TNTC = too numerous to count
[2] = exposure 1 minute, TNTC = too numerous to count
[3] = exposure 5 minutes, TNTC = too numerous to count

SMILES | Exposure time to complete kill (Candida albicans) [min] | Number of Microbial Colonies (Candida albicans; [1]) | Number of Microbial Colonies (Candida albicans; [2]) | Number of Microbial Colonies (Candida albicans; [3]) | Number of Microbial Colonies (Candida albicans; exposure 60 minutes) | Exposure time to complete kill (Pseudomonas aeruginosa) [min] | Number of Microbial Colonies (Pseudomonas aeruginosa; exposure 0.5 minutes) | Number of Microbial Colonies (Pseudomonas aeruginosa; exposure 1 minute) | Number of Microbial Colonies (Pseudomonas aeruginosa; exposure 5 minutes) | Number of Microbial Colonies (Pseudomonas aeruginosa; exposure 60 minutes) | Exposure time to complete kill (Staphylococcus aureus) [min] | Number of Microbial Colonies (Staphylococcus aureus; [1]) | Number of Microbial Colonies (Staphylococcus aureus; [2]) | Number of Microbial Colonies (Staphylococcus aureus; [3]) | Number of Microbial Colonies (Staphylococcus aureus; exposure 60 minutes)
CCCCC(CC)CNC(=N)NC(=N)NCCCCCCNC(=N)NC(=N)NCC(CC)CCCC (stereo not drawn) [Alexidine] | 0.5 to 1 | 3 and 0 (4×) | 0 (4×) and 1 | 0 | 0 | 0.5 to 1 | 0 | 0 | 0 | 0 | 0.5 to 1 | 0 | 0 | 0 | 0
[H]/N=C(\N/C(=N/[H])NCCCCCCNC(=N)NC(=N)Nc1ccc(Cl)cc1)Nc1ccc(Cl)cc1 [Chlorhexidine] | 60 | TNTC | TNTC | 30 and 20 and 32 and 24 and TNTC | 0 | 5 | 7 and 4 and 5 and 2 and 1 | 1 | 0 | 0 | 60 | TNTC | TNTC | TNTC | 1 (2×) and 0 (3×)

Reference: US20210037829A1, “ANTIMICROBIAL COMPOSITIONS FOR SURGICAL APPLICATIONS” (TELEFLEX MEDICAL INCORPORATED, priority 2015, published 2021)
